The source of these data is patent US20080227797A1, “Pyridopyrimidine Derivatives as Pde4 Inhibitors for the Treatment of Inflammatory and Immune Diseases” (ASTRAZENECA AB, priority 2005, published 2008).

The target of this assay is recombinant Human Phosphodiesterase B2 (PDE4B2) (Homo sapiens, UniProt Q07343). Put plainly: Human Phosphodiesterase B2 Alpha Screen Assay. In kind it is biochemical. The following applies: cAMP substrate, Alpha Screen cAMP kit, 60 minutes at room temperature. The protocol: Human Phosphodiesterase B2 Alpha Screen Assay
Chain of recombinant Human Phosphodiesterase B2 (PDE4B2) (Q07343 1-564 isoform Q07343-2): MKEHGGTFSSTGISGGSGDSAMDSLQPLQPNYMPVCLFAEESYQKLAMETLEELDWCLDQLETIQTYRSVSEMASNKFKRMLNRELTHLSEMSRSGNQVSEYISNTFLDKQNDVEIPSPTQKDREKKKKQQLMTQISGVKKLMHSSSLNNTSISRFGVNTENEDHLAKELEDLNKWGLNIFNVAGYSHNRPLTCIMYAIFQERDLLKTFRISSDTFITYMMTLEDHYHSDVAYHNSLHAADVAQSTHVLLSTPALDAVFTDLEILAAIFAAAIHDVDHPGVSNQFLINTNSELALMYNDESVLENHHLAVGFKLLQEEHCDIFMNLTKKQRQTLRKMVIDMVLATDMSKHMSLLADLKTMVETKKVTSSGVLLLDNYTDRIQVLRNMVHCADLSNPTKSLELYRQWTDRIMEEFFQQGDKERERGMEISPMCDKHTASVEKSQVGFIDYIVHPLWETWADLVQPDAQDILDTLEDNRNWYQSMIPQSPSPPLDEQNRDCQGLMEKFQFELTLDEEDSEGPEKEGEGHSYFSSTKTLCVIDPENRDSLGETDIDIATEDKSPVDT
The assay uses recombinant Human Phosphodiesterase B2 (PDE4B2) produced in house (PrAZL0133), stored at −20° C. The substrate uses cAMP, part of the Alpha Screen cAMP kit (Perkin Elmer, Cat# 6760625M), stored at 4° C. The Alpha Screen kit also includes biotinylated cAMP, acceptor and donor beads.
The assay additions were as follows: Test compounds and controls were added to white 384-well flat-bottom plates (Greiner, Cat# 781075), 0.2 μl in 100% DMSO, followed by 10 μl PDE4B2 in reaction buffer. The reaction buffer constitution was: 50 mM Tris (pH 7.5), 8.3 mM MgCl2, 1.7 mM EGTA and 0.01% (w/v) Brij®35. The enzyme and the compounds were incubated at room temperature for 15 minutes. Then 10 μl cAMP in reaction buffer was added. The assay was stopped after 60 minutes incubation at room temperature by adding 10 μl acceptor beads in detection buffer with 40 mM EDTA. The detection buffer constitution was: 5 mM Tris (pH 7.5), 0.1% (w/v) BSA and 0.1% (v/v) Tween 20. This addition followed by an addition of 10 μl donor beads in detection buffer, with biotinylated cAMP. The plates were then incubated, dark at room temperature, for 5 hours followed by measurement on a Fusion™-α analyser. IC50 values (presented in Table 1) were determined using Xlfit curve fitting using model 205.
A word on the IC50: it is the concentration that inhibits the measured activity by half. Regarding `O=C(N[C@H]1CC[C@@H](n2c(=O)c3cc(F)cnc3n(-c3ccc(F)c(F)c3)c2=O)CC1)C(O)c1ccccc1` (relative stereo) [Example 2, N-{cis-4-[1-(3,4-difluorophenyl)-6-fluoro-2,4-dioxo-1,4-dihydropyrido[2,3-d]pyrimidin-3(2H)-yl]cyclohexyl}-2-hydroxy-2-phenylacetamide], the half-inhibitory concentration (IC50) was 0.9 nM. Turning to `Cc1ccc(O)c(C(=O)N[C@H]2CC[C@@H](N3C(=O)c4cc(F)cnc4N(c4ccc(F)c(F)c4)[S+]3[O-])CC2)c1` (relative stereo) [Example 46, N-{cis-4-[1-(3,4-Difluorophenyl)-6-fluoro-2-oxido-4-oxo-1,4-dihydro-3H-pyrido[2,3-c][1,2,6]thiadiazin-3-yl]cyclohexyl}-2-hydroxy-5-methylbenzamide], the 50% inhibitory concentration (IC50) amounted to 129 nM. The value for `CN1CCCC(C(=O)N[C@H]2CC[C@@H](n3c(=O)c4cc(F)cnc4n(-c4ccc(F)c(F)c4)c3=O)CC2)C1` (relative stereo) [Example 99, N-{cis-4-[1-(3,4-difluorophenyl)-6-fluoro-2,4-dioxo-1,4-dihydropyrido[2,3-d]pyrimidin-3(2H)-yl]cyclohexyl}-1-methylpiperidine-3-carboxamide] was 6.01 nM; that for `O=C(N[C@H]1CC[C@@H](n2c(=O)c3cc(F)cnc3n(-c3ccc(F)c(F)c3)c2=O)CC1)c1cc(CO)ccc1O` [Example 1, N-{cis-4-[1-(3,4-difluorophenyl)-6-fluoro-2,4-dioxo-1,4-dihydropyrido[2,3-d]pyrimidin-3(2H)-yl]cyclohexyl}-2-hydroxy-5-(hydroxymethyl)benzamide] was 4.9 nM; that for `O=C(CO)N[C@H]1CC[C@@H](n2c(=O)c3cc(F)cnc3n(-c3ccc(F)c(F)c3)c2=O)CC1` [Example 3, N-{cis-4-[1-(3,4-difluorophenyl)-6-fluoro-2,4-dioxo-1,4-dihydropyrido[2,3-d]pyrimidin-3(2H)-yl]cyclohexyl}-2-hydroxyacetamide] was 16.3 nM.

Regarding `O=C(N[C@H]1CC[C@@H](n2c(=O)c3cc(F)cnc3n(-c3ccc(F)c(F)c3)c2=O)CC1)c1cc(Cl)ccc1O` [Example 4, 5-chloro-N-{cis-4-[1-(3,4-difluorophenyl)-6-fluoro-2,4-dioxo-1,4-dihydropyrido[2,3-d]pyrimidin-3(2H)-yl]cyclohexyl}-2-hydroxybenzamide], the half-maximal inhibitory concentration (IC50) turned out to be 5 nM.

For the compound `O=C(N[C@H]1CC[C@@H](n2c(=O)c3cc(F)cnc3n(-c3ccc(F)c(F)c3)c2=O)CC1)c1cccc(O)c1` [Example 5, N-{cis-4-[1-(3,4-difluorophenyl)-6-fluoro-2,4-dioxo-1,4-dihydropyrido[2,3-d]pyrimidin-3(2H)-yl]cyclohexyl}-3-hydroxybenzamide], the IC50 was determined as 2.2 nM. For the compound `O=C(N[C@H]1CC[C@@H](n2c(=O)c3cc(F)cnc3n(-c3ccc(F)c(F)c3)c2=O)CC1)c1ccc(O)cc1` [Example 6, N-{cis-4-[1-(3,4-difluorophenyl)-6-fluoro-2,4-dioxo-1,4-dihydropyrido[2,3-d]pyrimidin-3(2H)-yl]cyclohexyl}-4-hydroxybenzamide], the IC50 turned out to be 2.3 nM.

For the compound `COC(=O)c1ccccc1C(=O)N[C@H]1CC[C@@H](n2c(=O)c3cc(F)cnc3n(-c3ccc(F)c(F)c3)c2=O)CC1` [Example 7, methyl 2-[({cis-4-[1-(3,4-difluorophenyl)-6-fluoro-2,4-dioxo-1,4-dihydropyrido[2,3-d]pyrimidin-3(2H)-yl]cyclohexyl}amino)carbonyl]benzoate], the IC50 was 3 nM. Consider `O=C(Cc1ccc(O)cc1)N[C@H]1CC[C@@H](n2c(=O)c3cc(F)cnc3n(-c3ccc(F)c(F)c3)c2=O)CC1` [Example 8, N-{cis-4-[1-(3,4-difluorophenyl)-6-fluoro-2,4-dioxo-1,4-dihydropyrido[2,3-d]pyrimidin-3(2H)-yl]cyclohexyl}-2-(4-hydroxyphenyl)acetamide], for which the IC50 turned out to be 2.2 nM.

As for `Cc1ccc(C(=O)N[C@H]2CC[C@@H](n3c(=O)c4cc(F)cnc4n(-c4ccc(F)c(F)c4)c3=O)CC2)c(O)c1` [Example 9, N-{cis-4-[1-(3,4-difluorophenyl)-6-fluoro-2,4-dioxo-1,4-dihydropyrido[2,3-d]pyrimidin-3(2H)-yl]cyclohexyl}-2-hydroxy-4-methylbenzamide], the IC50 was found to be 1.3 nM. In the case of `O=C(N[C@H]1CC[C@@H](n2c(=O)c3cc(F)cnc3n(-c3ccc(F)c(F)c3)c2=O)CC1)c1ccccc1O` [Example 10, N-{cis-4-[1-(3,4-difluorophenyl)-6-fluoro-2,4-dioxo-1,4-dihydropyrido[2,3-d]pyrimidin-3(2H)-yl]cyclohexyl}-2-hydroxybenzamide], the 50% inhibitory concentration (IC50) was found to be 2.6 nM. In the case of `O=C(N[C@H]1CC[C@@H](n2c(=O)c3cc(F)cnc3n(-c3ccc(F)c(F)c3)c2=O)CC1)c1ncccc1O` [Example 11, N-{cis-4-[1-(3,4-difluorophenyl)-6-fluoro-2,4-dioxo-1,4-dihydropyrido[2,3-d]pyrimidin-3(2H)-yl]cyclohexyl}-3-hydroxypyridine-2-carboxamide], the IC50 turned out to be 3.4 nM. In the case of `O=C(N[C@H]1CC[C@@H](n2c(=O)c3cc(F)cnc3n(-c3ccc(F)c(F)c3)c2=O)CC1)c1ccc(O)c(Cl)c1` [Example 12, 3-chloro-N-{cis-4-[1-(3,4-difluorophenyl)-6-fluoro-2,4-dioxo-1,4-dihydropyrido[2,3-d]pyrimidin-3(2H)-yl]cyclohexyl}-4-hydroxybenzamide], the concentration for half-maximal inhibition (IC50) was 2.2 nM. The figure for `Cc1c(O)cccc1C(=O)N[C@H]1CC[C@@H](n2c(=O)c3cc(F)cnc3n(-c3ccc(F)c(F)c3)c2=O)CC1` [Example 13, N-{cis-4-[1-(3,4-difluorophenyl)-6-fluoro-2,4-dioxo-1,4-dihydropyrido[2,3-d]pyrimidin-3(2H)-yl]cyclohexyl}-3-hydroxy-2-methylbenzamide] is 3.2 nM; for `COc1cc(C(=O)N[C@H]2CC[C@@H](n3c(=O)c4cc(F)cnc4n(-c4ccc(F)c(F)c4)c3=O)CC2)ccc1O` [Example 14, N-{cis-4-[1-(3,4-difluorophenyl)-6-fluoro-2,4-dioxo-1,4-dihydropyrido[2,3-d]pyrimidin-3(2H)-yl]cyclohexyl}-4-hydroxy-3-methoxybenzamide] it is 1.5 nM. As for `Cc1ccc(C(=O)N[C@H]2CC[C@@H](n3c(=O)c4cc(F)cnc4n(-c4ccc(F)c(F)c4)c3=O)CC2)cc1O` [Example 15, N-{cis-4-[1-(3,4-difluorophenyl)-6-fluoro-2,4-dioxo-1,4-dihydropyrido[2,3-d]pyrimidin-3(2H)-yl]cyclohexyl}-3-hydroxy-4-methylbenzamide], the IC50 is 1.3 nM. With `COc1cccc(O)c1C(=O)N[C@H]1CC[C@@H](n2c(=O)c3cc(F)cnc3n(-c3ccc(F)c(F)c3)c2=O)CC1` [Example 16, N-{cis-4-[1-(3,4-difluorophenyl)-6-fluoro-2,4-dioxo-1,4-dihydropyrido[2,3-d]pyrimidin-3(2H)-yl]cyclohexyl}-2-hydroxy-6-methoxybenzamide], the IC50 came out at 2.1 nM. With `COc1cccc(C(=O)N[C@H]2CC[C@@H](n3c(=O)c4cc(F)cnc4n(-c4ccc(F)c(F)c4)c3=O)CC2)c1O` [Example 17, N-{cis-4-[1-(3,4-difluorophenyl)-6-fluoro-2,4-dioxo-1,4-dihydropyrido[2,3-d]pyrimidin-3(2H)-yl]cyclohexyl}-2-hydroxy-3-methoxybenzamide], the 50% inhibitory concentration (IC50) worked out at 1.8 nM.
